Results from patent publication US8017585B2, “CXCR4 antagonist and use thereof” (priority 2002, dated 2011).
Bridge positions count the residues as written; N and C are the ends. Square brackets hold non-standard residues; d marks the D form. Peptide text beside a SMILES is read from it. * marks the point of attachment. 2Nal = N[C@@H](Cc1ccc2ccccc2c1)C(=O)O; Benzoyl(4-F) = O=C(c1ccc(F)cc1)*; Cit = NC(=O)NCCC[C@H](N)C(=O)O

Columns and labels:
[1] = system: mouse DTH reaction induced by SRBC; assay: Mouse delayed-type hypersensitivity reaction (DTH) induced by SRBC; type: in vivo, BALB/c mice; settings: Alzet osmotic pump
Experimental: Preserved blood of sheep was purchased from Nippon Bio-Supp. Center. The preserved sheep blood was cleansed twice in physiological saline solution, suspended in physiological saline solution, and used as sheep red blood cells (SRBC). As OD541 nm value of oxyhemoglobin at the time of hemolyzation of 1.0×10^9 cells/mL of the SRBC suspension by 14 parts distilled water is considered to be nearly 0.700, SRBC density was accordingly fixed.
2×10^7 cells/50 μl of SRBC were administered subcutaneously to the ankles of the left hindlimbs of BALB/c mice (male, 6 week-old, Charles River Japan, Inc.) and sensitized. After 5 days, 10^8 cells/50 μl of SRBC were administered subcutaneously to the ankles of the right hindlimbs and DTH reaction was induced. Immediately prior to and 24 hours after the induction of antigens, the thickness of the ankles of the right hindlimbs was measured by a digital micrometer (Mitutoyo Corporation CD-15B), and the increase (mm) in the thickness of ankles was adopted as the indicator of DTH reaction.
4Fbenzoyl-TN14003 was dissolved to PBS, and continuously administered using Alzet osmotic pumps (Alza, 0.5 μL/hr, 7 days persistent type). The osmotic pumps were implanted intradermally to the backs under ether anesthesia on the day before the sensitization. As the control, pumps injected with PBS were similarly implanted. 4F-benzoyl-TN14003 was administered at the doses of 4.8, 24 and 120 μg/day.
Data were expressed as mean value±standard margin of error (n=7). By Williams test, p≦0.025 was valued as significant.

[2] = system: SUP-T1 cells; assay: Inhibition of CXCL12-induced T-cell derived leukemia cell migration (Transwell); type: cell-based, human; settings: 10 nM of the antagonist; 30 nM CXCL12; 4 hours
Experimental: 30 nM of CXCL12 (R&D System Company) and 600 μL/well of buffer-A (0.1% bovine serum albumin, DMEM (GibcoBRL) containing 12 mM HEPES) containing the test compound were added to the lower chamber of Transwell filter (polycarbonate filter, 8 μm diameter, Costar Company). The test compound and human cell-derived leukemia SUP-T1 cells (purchased from American Tissue Culture Collection), and 100 μL/well of buffer A containing 2×10^6 cells/mL were added to the upper chamber. After 4 hours' incubation at 37° C. in 5% CO2 incubator, the number of the cells moved to the lower chamber was counted by Coulter counter. Control (−) indicates the migration when CXCL12 was not added. Control (+) indicates the migration when CXCL12 was added. By adding CXCL12, the migration of SUP-T1 cells was enhanced. This CXCL12-induced migration of SUP-T1 cells was inhibited by 10 nM of the antagonist, 4Fbenzoyl-TN-14003. From the foregoing, 4Fbenzoyl-TN-14003, by inhibiting the movement of T-cells at low concentrations, is considered to be useful as an inhibitory drug for chronic rheumatoid arthritis.

[3] = system: MDA-MB-231 human breast cancer cells; assay: Anti-metastatic activity, MDA-MB-231 cells implanted i.v. in SCID mice, lung metastasis; type: in vivo, CB-17 SCID mice; settings: 18.2 mg/kg/day by Alzet osmotic pump, 28 days after implantation
Experimental: MDA-MB-231 human breast cancer cells (10^6 cells) were implanted intravenously into the tails of five week-old female CB-17 SCID mice (Crea Japan, Inc.). 4Fbenzoyl-TN-14003 was prepared at 80 mg/mL in physiologic saline solution, was included into sustained-releasing osmotic pumps (Alzet pump, Alza Corporation, usable for 2 week sustained-release; the dose was equivalent to 18.2 mg/kg/day), and was intradermally loaded to the backs of the mice on the date immediately preceding the implantation. Further, 14 days after the implantation, Alzet pumps containing an equal dose of the drug were additionally loaded. To the control group, Alzet pumps injected with physiological saline solution were additionally loaded. 28 days after the implantation, the mice were dissected, about 2 mL of 0.2% Evans' Blue solution was injected through windpipes, and lungs were stained. The lungs were taken out, soaked in Bouin's liquid, stained and fixed. […] In the lungs of the control group, the yellow stained portions were evenly seen, and lung metastasis was observed. On the other hand, in the 4Fbenzoyl-TN-14003 administration group, yellow stained specimens were less.

[4] = system: mouse collagen-induced arthritis; assay: Mouse collagen-induced arthritis; type: in vivo, DBA/1JN mouse; settings: 120 μg/day, Alzet osmotic pump, 2 weeks
Experimental: FK-506 was purified by a known method (Kino T. et al., J. Antibiot., 1987 40(9): 1249-55). […] For 2 weeks after the additional immunization, body weights and hindlimb thickness were measured and arthritis scoring was made. Arthritis scores were scored at 0-3 points of each limb, and evaluated by the total of the same (12 points being the full points; 0, normal; 1, mild swelling or swelling of a single digit; 2, moderate swelling or swelling of plural digits; 3, severe swelling). Two weeks after the immunization, four limbs and sera were picked. After coat blocking bovine type II collagen (10 μg/mL PBS solution) on the immunoplate, 100 μL of 1000 times diluted mouse serum was added, and kept at room temperature for 2 hours. After cleansing, anti-mouse IgG2a antibody (1000 times dilution) was added. After cleansing, TMB was added, kept at room temperature for 30 minutes, H2SO4 of equal amount was added, and A450 nm was measured. Indomethacin (1 mg/kg), methotrexate (3 mg/kg) and FK-506 (10 mg/kg) were suspended to 0.5% methyl cellulose, and orally administered every day for 2 weeks from the day of the additional immunization at the dose of 0.1 mL/10 g body weight. 0.5% methyl cellulose solution of the equal dose was orally administered to the control group. 4Fbenzoyl-TN14003 was dissolved to PBS, and continuously administered using Alzet osmotic pumps (Alza, 0.5 μL/hr 2 weeks). The osmotic pumps were implanted intradermally to the backs of the mice under ether anesthesia on the day before the additional immunization. As the control, pumps injected with PBS were similarly implanted. Evaluation of each drug was made for the value obtained 2 weeks after the additional immunization. Data were expressed as mean value±standard margin of error (n=8-12). Comparison between 2 groups was made by Student's t-test, p≦0.05 was valued as significant. Multiple comparison was made by Dunnett test, p≦0.05 was valued as significant.

N=C(N)NCCC[C@H](NC(=O)[C@@H]1CSSC[C@H](NC(=O)[C@H](Cc2ccc3ccccc3c2)NC(=O)[C@H](CCCNC(=N)N)NC(=O)[C@H](CCCNC(=N)N)NC(=O)c2ccc(F)cc2)C(=O)N[C@@H](Cc2ccc(O)cc2)C(=O)N[C@@H](CCCNC(N)=O)C(=O)N[C@@H](CCCCN)C(=O)N[C@H](CCCCN)C(=O)N2CCC[C@H]2C(=O)N[C@@H](Cc2ccc(O)cc2)C(=O)N[C@@H](CCCNC(=N)N)C(=O)N[C@@H](CCCNC(N)=O)C(=O)N1)C(N)=O [4F-benzoyl-TN14003, 4F-benzoyl-Arg-Arg-Nal-Cys-Tyr-Cit-Lys-DLys-Pro-Tyr-Arg-Cit-Cys-Arg-NH2] ({Benzoyl(4-F)}-RR[2Nal]CY[Cit]K[dK]PYR[Cit]CR-NH2; disulfide 4-13)
inhibitory rate of footpad edema (DTH) ([1]; 4.8 μg/day): 9% | inhibitory rate of footpad edema (DTH) ([1]; 24 μg/day): 31% | inhibitory rate of footpad edema (DTH) ([1]; 120 μg/day): 51% | CXCL12-induced migration of SUP-T1 cells [2]: inhibited | lung metastasis (eye observation of metastatic focus) [3]: the metastasis was inhibited | arthritis score [4]: significant inhibitory activity | body weight loss [4]: significant inhibitory activity | hindlimb swelling [4]: significant inhibitory activity | increase of anti-type II collagen specific IgG2a antibody value [4]: inhibitory tendency
